Experimental data from US5310752A, “Site specific alkylating agents” (priority 1986, dated 1994).
Values after ≈ are worked out from the molar mass of the structure shown. Structures can show the parent of a compound that is named as a salt. Where two headings read alike, the source gives them in different places.

How the values were obtained:
[1] = tested on: HeLa cells; assay: colony inhibition test, HeLa cells, 24 hours treatment; assay type: cell-based; settings: for IC50: Homo sapiens, read-out: ID50 HeLa
Procedure: (§1) The in vitro antitumor activity was evaluated by cytotoxicity studies carried out on murine L1210 leukemia cells, L-PAM resistance leukemia cells and P388 leukemia cells, as well as on HeLa cells. Cells were derived from in vivo tumors and established in cell culture. Cells were used until the tenth passage. Cytotoxicity was determined by counting surviving cells after 4 hours treatment and 48 hours growth in drug-free medium. For HeLa cells the colony inhibition test according to Cancer Chemother. Pharmacol. 1:249-254, 1978, was used. The percentage of cell growth in the treated cultures was compared with that of controls. ID50 values (doses inhibiting 50% of the cellular growth in respect to controls) were calculated on dose-response curves.
^3) Colony inhibition test carried out after 24 hours treatment.

[2] = tested on: L1210/LPAM; assay: in vitro cytotoxicity, L-PAM resistance leukemia cells (L1210/LPAM), 4 hours treatment; assay type: cell-based, murine; settings: for IC50: Mus musculus, L1210/LPAM, read-out: ID50 L1210/LPAM
Procedure: as §1
(§2) ^1) Cytotoxicity evaluated after 4 hours treatment;

[3] = tested on: P388 leukemia cells; assay: in vitro cytotoxicity, P388 leukemia cells, 48 hours treatment; assay type: cell-based, murine; settings: for IC50: Mus musculus, read-out: ID50 P388
Procedure: as §1
^2) Cytotoxicity evaluated after 48 hours treatment;

[4] = tested on: L1210 leukemia cells; assay: in vitro cytotoxicity, L1210 leukemia cells, 4 hours treatment; assay type: cell-based; settings: murine L1210 leukemia cells, cytotoxicity evaluated after 4 hours treatment
Procedure: as §1, §2

[5] = tested on: DNA-AT sequences; settings: reported in literature; cited from earlier work
[6] = HeLa cells, colony inhibition test carried out after 24 hours treatment
[7] = L-PAM resistance leukemia cells, cytotoxicity evaluated after 4 hours treatment
[8] = P388 leukemia cells, cytotoxicity evaluated after 48 hours treatment

Structure (SMILES): Cn1cc(NC(=O)c2cc(NC(=O)c3cc(NC(=O)c4ccc(N(CCCl)CCCl)cc4)cn3C)cn2C)cc1C(=O)NCCC(=N)N [FCE 24517, β-[1-methyl-4-[1-methyl-4-[1-methyl-4-[4-N,N-bis(2-chloro-ethyl)aminobenzene-1-carboxamido]pyrrole-2-carboxamido]pyrrole-2-carboxamido]pyrrole-2-carboxamido]propionamidine hydrochloride]
- IC50 ([1]; HeLa, 24 h): 0.014 µg/mL
- IC50 ([2]; 4 h): 0.43 µg/mL
- IC50 ([3]; P388, 48 h): 0.21 µg/mL

Structure (SMILES): Cn1cc(NC(=O)c2cc(NC(=O)c3cc(NC(=O)c4cc(N(CCCl)CCCl)cs4)cn3C)cn2C)cc1C(=O)NCCC(=N)N [FCE 24690, β-[1-methyl-4-[1-methyl-4-[1-methyl-4-[4-N,N-bis(2-chloro-ethyl)aminothiophen-2-carboxamido]pyrrole-2-carboxamido]pyrrole-2-carboxamido]pyrrole-2-carboxamido]propionamidine hydrochloride]
- ID50 HeLa [1, 6]: 0.037 µg/mL
- ID50 L1210/LPAM [2, 7]: 0.985 µg/mL
- ID50 P388 [3, 8]: 0.22 µg/mL
- ID50 L1210 [4]: 1.365 µg/mL

Structure (SMILES): Cn1cc(NC(=O)c2cc(NC(=O)c3cc(NC=O)cn3C)cn2C)cc1C(=O)NCCC(=N)N [distamycin A, reference compound]
- IC50 [1, 6]: 3.9 µg/mL (≈ 8.1 µM)
- IC50 [2, 7]: 136 µg/mL (≈ 282 µM)
- IC50 [3, 8]: 25 µg/mL (≈ 51.9 µM)
- IC50 ([4]; Mus musculus, read-out: ID50 L1210): 198 µg/mL (≈ 411 µM)
- interaction with DNA-AT sequences [5]: interact reversibly and selectively with DNA-AT sequences interfering with both replication and trascription
